What all share (format): functional
The subject of assay [1] is Mycolicibacterium smegmatis. The assay can be described thus: Antitubercular activity against Mycobacterium smegmatis by checkerboard assay.
The test system of assay [2] is Mycolicibacterium smegmatis. Put plainly: Antitubercular activity against Mycobacterium smegmatis by checkerboard assay in presence of spectinomycin.
The test system of assay [3] is Mycolicibacterium smegmatis. Put plainly: Antitubercular activity against Mycobacterium smegmatis by checkerboard assay in presence of rifampicin.
Assay [4] has as its system Mycolicibacterium smegmatis. Put plainly: Ratio of MIC99 for Mycobacterium smegmatis to ratio of MIC99 for Mycobacterium smegmatis in presence of 25-desacetylrifampicin.
In assay [5] the test system is Mycolicibacterium smegmatis. The assay can be described thus: Ratio of MIC99 for Mycobacterium smegmatis to ratio of MIC99 for Mycobacterium smegmatis in presence of kanamycin.
In assay [6] the test system is Mycolicibacterium smegmatis. Put plainly: Antitubercular activity against Mycobacterium smegmatis by checkerboard assay in presence of 25-desacetylrifampicin.
The test system of assay [7] is Mycolicibacterium smegmatis. The assay can be described thus: Antitubercular activity against Mycobacterium smegmatis by checkerboard assay in presence of kanamycin.
Assay [8] relates to Mycobacterium tuberculosis. The assay can be described thus: Antitubercular activity against drug-sensitive Mycobacterium tuberculosis.
Assay [9] relates to Mycolicibacterium smegmatis. Put plainly: Ratio of MIC99 for Mycobacterium smegmatis to ratio of MIC99 for Mycobacterium smegmatis in presence of chlorpromazine.
The test system of assay [10] is Mycolicibacterium smegmatis. The assay can be described thus: Antitubercular activity against Mycobacterium smegmatis by checkerboard assay in presence of chlorpromazine. The settings on record: for MIC99: Mycolicibacterium smegmatis.
Assay [11] has as its system Mycolicibacterium smegmatis. Put plainly: Antitubercular activity against Mycobacterium smegmatis by checkerboard assay in presence of 7-hydroxy chlorpromazine. The settings on record: for MIC99: Mycolicibacterium smegmatis.
In assay [12] the test system is Mycolicibacterium smegmatis. Put plainly: Ratio of MIC99 for Mycobacterium smegmatis to ratio of MIC99 for Mycobacterium smegmatis in presence of 7-hydroxy chlorpromazine.
The test system of assay [13] is Mycolicibacterium smegmatis. Put plainly: Ratio of MIC99 for Mycobacterium smegmatis to ratio of MIC99 for Mycobacterium smegmatis in presence of nor-chlorpromazine.
For assay [14], the system named is Mycolicibacterium smegmatis. The assay can be described thus: Ratio of MIC99 for Mycobacterium smegmatis to ratio of MIC99 for Mycobacterium smegmatis in presence of chlorpromazine-N-oxide.
Assay [15] deals with Mycolicibacterium smegmatis. Put plainly: Antitubercular activity against Mycobacterium smegmatis by checkerboard assay in presence of chlorpromazine-N-oxide. The note with it: for MIC99: Mycolicibacterium smegmatis.
Assay [16] concerns Mycolicibacterium smegmatis. The assay can be described thus: Antitubercular activity against Mycobacterium smegmatis by checkerboard assay in presence of nor-chlorpromazine. The settings on record: for MIC99: Mycolicibacterium smegmatis.
The test system of assay [17] is Mycolicibacterium smegmatis. The assay can be described thus: Antitubercular activity against Mycobacterium smegmatis by checkerboard assay in presence of chlorpromazine sulfoxide.
The subject of assay [18] is Mycolicibacterium smegmatis. Put plainly: Antitubercular activity against Mycobacterium smegmatis by checkerboard assay in presence of chlorpromazine-N-S-dioxide.
Assay [19] deals with Mycolicibacterium smegmatis. The assay can be described thus: Antitubercular activity against Mycobacterium smegmatis assessed as reduction in MIC99 by checkerboard assay in presence of chlorpromazine-N-S-dioxide relative to control.
The test system of assay [20] is Mycolicibacterium smegmatis. Put plainly: Antitubercular activity against Mycobacterium smegmatis assessed as reduction in MIC99 by checkerboard assay in presence of chlorpromazine sulfoxide relative to control.
Assay [21] has as its system Mycolicibacterium smegmatis. The assay can be described thus: Antitubercular activity against Mycobacterium smegmatis by checkerboard assay in presence of nor-chlorpromazine sulfoxide.
Assay [22] concerns Mycolicibacterium smegmatis. The assay can be described thus: Antitubercular activity against Mycobacterium smegmatis assessed as reduction in MIC99 by checkerboard assay in presence of nor-chlorpromazine sulfoxide relative to control.

In general, MIC99 refers to an inhibitory concentration at the 99% level, which refers to growth in some studies and to a panel of isolates in others. For orientation: MIC means the lowest concentration found to suppress growth. Low readings indicate inhibition by little substance, high ones a need for much substance.

Values after ≈ are worked out from the molar mass of the structure shown.

Consider `CNCCCN1c2ccccc2[S+]([O-])c2ccc(Cl)cc21` (configuration not stated), for which the MIC99 was greater than 2080 µM in [1] and 64.9 µM in assay [2].
For the compound `C[N+](C)([O-])CCCN1c2ccccc2Sc2ccc(Cl)cc21`, the MIC99 came to 498 µM in assay [3]; 995 µM in [1]; 498 µM in [6]; 124 µM in assay [2]; 498 µM in [7]. In addition, the Ratio in [4] and in assay [5] was 0.5 each time.
With `C[N+](C)([O-])CCCN1c2ccccc2[S+]([O-])c2ccc(Cl)cc21` (configuration not stated), the results for the MIC99 in assay [1], in assay [2] and in [7] were greater than 1900 µM, 1900 µM and 475 µM, respectively.
In the case of `CN[C@@H]1[C@H](O)[C@H](NC)[C@H]2O[C@]3(O)[C@H](O[C@@H]2[C@H]1O)O[C@H](C)C[C@H]3NC(=O)Cc1ccccn1`, the MIC in assay [8] was found to be 0.8 µg/mL (≈ 1.77 µM).
The same measure, in the same setting: under `CN[C@@H]1[C@H](O)[C@H](NC)[C@H]2O[C@]3(O)[C@H](O[C@@H]2[C@H]1O)O[C@H](C)C[C@H]3NC(=O)Cc1ccccc1` stands 0.8 µg/mL (≈ 1.77 µM); under `CN[C@@H]1[C@H](O)[C@H](NC)[C@H]2O[C@]3(O)[C@H](O[C@@H]2[C@H]1O)O[C@H](C)C[C@H]3NC(=O)Cc1ccc(F)cn1`, 0.8 µg/mL (≈ 1.7 µM).
The same measure, in the same setting: under `CN[C@@H]1[C@H](O)[C@H](NC)[C@H]2O[C@]3(O)[C@H](O[C@@H]2[C@H]1O)O[C@H](C)C[C@H]3NC(=O)Cc1ccc(Cl)cn1` stands 0.8 µg/mL (≈ 1.64 µM).
Still for that read-out and setting: under `CN[C@@H]1[C@H](O)[C@H](NC)[C@H]2O[C@]3(O)[C@H](O[C@@H]2[C@H]1O)O[C@H](C)C[C@H]3NC(=O)CNC(C)(C)C` stands 0.8 µg/mL (≈ 1.79 µM).
In assay [8], `CN[C@@H]1[C@H](O)[C@H](NC)[C@H]2O[C@]3(O)[C@H](O[C@@H]2[C@H]1O)O[C@H](C)C[C@H]3NC(=O)Cc1cscn1` displayed an MIC of 0.8 µg/mL (≈ 1.74 µM).
On the same count and under the same terms, under `CN[C@@H]1[C@H](O)[C@H](NC)[C@H]2O[C@]3(O)[C@H](O[C@@H]2[C@H]1O)O[C@H](C)C[C@H]3NC(=O)Cc1cc(Cl)ccn1` stands 0.8 µg/mL (≈ 1.64 µM).
As for `CN(C)CCCN1c2ccc(O)cc2Sc2ccc(Cl)cc21` [7-HYDROXYCHLORPROMAZINE], the MIC99 in [3] stood at 31.1 µM; in assay [1], 62.2 µM; in assay [6], 62.2 µM; in assay [2] it was 15.6 µM; in assay [10] it was 62.2 µM; in assay [7] it was 31.1 µM. Also, the Ratio in assay [4] and in assay [9] was 0.5 each time.
As to `CN(C)CCCN1c2ccccc2[S+]([O-])c2ccc(Cl)cc21` (configuration not stated) [CHLOROPROMAZINE SULFOXIDE], the MIC99 in assay [1] is greater than 1990 µM; in assay [2], 1990 µM; in [7], 1990 µM.
For the compound `CN(C)CCCN1c2ccccc2Sc2ccc(Cl)cc21` [CHLORPROMAZINE], the MIC99 in [3] amounted to 58.6 µM; in [1], 117 µM; in [6], 29.3 µM; in assay [2], 29.3 µM; in [11], 29.3 µM; in [7], 58.6 µM. Further, the Ratio in [5] is 0.5; in assay [12], 0.25.
In the case of `CO[C@H]1/C=C/O[C@@]2(C)Oc3c(C)c(O)c4c(O)c(c(/C=N/N5CCN(C)CC5)c(O)c4c3C2=O)NC(=O)/C(C)=C\C=C\[C@H](C)[C@H](O)[C@@H](C)[C@@H](O)[C@@H](C)[C@H](O)[C@@H]1C` [DESACETYLRIFAMPIN], the Ratio in assay [13] came to 0.252; in assay [14] it was 0.252; in [9], 0.25; in assay [12], 0.248. The MIC99 worked out at 5.33 µM in assay [1]; 0.67 µM in assay [15]; 0.33 µM in [11]; 0.67 µM in assay [16]; 1.33 µM in [10]. Also, the “fractional inhibitory concentration index (FICI)” value is listed as 0.75 in [15], 0.75 in [11], 0.5 in assay [16] and 0.5 in assay [10].
`NC[C@H]1O[C@H](O[C@H]2[C@H](O)[C@@H](O[C@H]3O[C@H](CO)[C@@H](O)[C@H](N)[C@H]3O)[C@H](N)C[C@@H]2N)[C@H](O)[C@@H](O)[C@@H]1O` [KANAMYCIN]: the Ratio in assay [13] is 0.249; in assay [14], 0.497; in [9], 0.5; in assay [12], 0.249. Moreover, the MIC99 in assay [17] turned out to be 0.89 µM; in assay [1] it was 7.16 µM; in [18] it was 0.89 µM; in [15], 0.89 µM; in assay [11], 0.89 µM; in assay [16], 0.89 µM. In addition, the MIC99 in assay [10] was 3.57 µM. Besides, the “fold change (FC)” value in assay [19] and in assay [20] was 2 in each case. In addition, the “fractional inhibitory concentration index (FICI)” value stood at 1 in assay [15], 0.5 in assay [11], 0.5 in assay [16] and 1 in assay [10].
On to `CNCCCN1c2ccccc2Sc2ccc(Cl)cc21` [NOR1-CHLORPROMAZINE], for which the MIC99 came out at 34.2 µM in [3]; 137 µM in assay [1]; 34.2 µM in assay [6]; 34.2 µM in assay [2]; 34.2 µM in [7]. The Ratio in [4] and in [5] was 0.25 in each case.
With `CO[C@H]1/C=C/O[C@@]2(C)Oc3c(C)c(O)c4c(O)c(c(/C=N/N5CCN(C)CC5)c(O)c4c3C2=O)NC(=O)/C(C)=C\C=C\[C@H](C)[C@H](O)[C@@H](C)[C@@H](O)[C@@H](C)[C@H](OC(C)=O)[C@@H]1C` [RIFAMPIN], the Ratio in assay [13] stood at 0.254; in [14], 0.5; in assay [9] it was 0.126; in assay [12] it was 0.126. Also, the MIC99 in assay [1] turned out to be 2.53 µM; in assay [15], 0.63 µM; in assay [11], 0.32 µM; in [16], 0.32 µM; in assay [10], 0.2 µM. Further, the “fractional inhibitory concentration index (FICI)” value in assay [15] was 1; in assay [11], 0.63; in assay [16] it was 0.5; in assay [10], 0.63.
In the case of `CN[C@@H]1[C@H](O)[C@H](NC)[C@H]2O[C@@]3(O)C(=O)C[C@@H](C)O[C@H]3O[C@@H]2[C@H]1O` [SPECTINOMYCIN], the Ratio is given as 0.062 in [13], 0.5 in [14], 0.062 in assay [9] and 0.062 in assay [12]. Also, the MIC99 in [17] was 10.5 µM; in assay [1], 84.1 µM; in [18], 42 µM; in assay [21] it was 21 µM; in assay [15] it was 84.1 µM; in assay [11] it was 5.25 µM. In addition, the MIC99 in [16] and in assay [10] was 5.25 µM throughout. The “fold change (FC)” value came to 4 in assay [22], 2 in assay [19] and 16 in assay [20]. The “fractional inhibitory concentration index (FICI)” value in [15] was 0.63; in assay [11] it was 0.19; in [16] it was 0.31; in [10], 0.31.

Source of the values: ChEMBL document CHEMBL3352027, “Pharmacologically active metabolites, combination screening and target identification-driven drug repositioning in antituberculosis drug discovery” (2014).
